We go through four compounds from patent US9180094B2, “High porosity materials, scaffolds, and method of making” (The Texas A&M University System, priority 2011, dated 2015).

One series concerns cells. In words: Cytocompatibility of cells after addition of surfactant PGPR. The series is classed as cell-based. The settings on record: concentrations that permit emulsification (0.1, 1.0 or 5 wt. %). From the text: FIG. 3C depicts cytocompability of cells after addition of the surfactant, PGPR, at 0.1 wt. %, 1.0 wt. % or 5 wt. %;
The subject of series [1] is human mesenchymal stem cells (hMSCs). The experiment in a line: hMSC adhesion and spreading on scaffolds and films. As to conditions: polyHIPE scaffolds fabricated with PGPR, AIBN initiated, between 3 and 24 hours after seeding. The class given is cell-based. Here is the method: For three-dimensional scaffolds described herein, the behavior of the surfactant may be further modified to improve cell adhesion to the scaffold of cells, such as fibroblasts, mesenchymal stem cells, osteoblasts, chondrocytes, and other matrix formed cells. […] PolyHIPEs were prepared with PGPR and initiated with AIBN. When cured, as previously described, samples were sectioned using a precision diamond wafering saw. Prior to seeding with human mesenchymal stem cells (hMSCs), the polyHIPEs samples were soaked in 70% ethanol to sterilize, subjected to a wetting ladder to increase aqueous solution penetration, and incubated overnight in medium enhanced with 40 wt. % fetal bovine serum (FBS). The scaffolds were then seeded at a concentration of about 2×10^3 and 10×10^3 cells/cm^2. On scaffolds fabricated with PGPR, hMSC adhesion and spreading declined when measured between 3 and 24 hours after seeding. It was hypothesized that PGPR may be affecting protein adsorption and/or their conformation when attempting to localize on the polyHIPE scaffold. This was further analyzed on PFDMA films prepared with and without PGPR. The effect of PGPR on protein adsorption and/or conformation was confirmed at 24 hours, in which hMSC adhesion and spreading decreased on PGPR-PFDMA film specimens as compared with control (PFDMA alone) specimens. […]

The subject of series [2] is human mesenchymal stem cells. The experiment in a line: Cell viability with scaffold samples introduced into the medium. The series is classed as cell-based. The settings on record: scaffold prepared with 5 wt. % initiator in the medium, after 72 hours. As to the method: Said initiators are typically those with decomposition temperature ranging from between about 25 to about 100° C. Examples include but are not limited to azobis-isobutyronitrile (AIBN) and benzoyl peroxide (BPO). Preliminary tack-free time studies of polyHIPE emulsions prepared with 5 wt. % AIBN or BPO indicated a […] cure time compared with emulsions prepared with 5 wt. % ammonium persulfate. The time to cure was about 7-12 hours with an ammonium persulfate initiator (aqueous phase free radical initiator) as compared with about 1.5 hours with the AIBN or BPO (organic soluble free radical initiator).

The nature of another series: Macromer viscosity. The class given is physicochemical. As to the method: Further described is a method of preparing a polyHIPE. In one form the polyHIPE is prepared with a biodegradable fumerate having ester linkages. One example is PFDMA. The method further comprises a two-step process. The first step produced an intermediate molecule as a diester intermediate. In one form the intermediate was bis-(1,2-hydroxypropyl)fumarate (FIG. 1A). The intermediate was then functionalized with methacrylate endgroups (FIG. 1B). With purification, the structure of the resulting formed material, PFDMA, was confirmed with ^1H NMR, as represented in FIG. 2. Integration ratio of methacryloyl protons to fumarate protons in the ^1H NMR spectra was confirmed and the formed structure was, in this example, a PFDMA as a single fumarate unit with two terminal methacrylate groups. The average functionalization was calculated to be greater than 80%. In some embodiments, functionalization was calculated to be at or about 83%. The methacrylate and fumarate groups provided sites for radical crosslinking as further described below. It is, in part, the crosslinking as described herein that allows cure of the HIPE at physiological temperatures.

Consider “polyglycerol polyricinoleate [PGPR 4125]”, for which the cytocompatibility with cells entry in the series with cells was “cytocompatible”. Further, in series [1], the “hMSC adhesion and spreading on scaffolds” value is on record as “declined”. For the compound `CC(C)(C#N)N=NC(C)(C)C#N` [AIBN, azobis-isobutyronitrile], in series [2], the “effect on cell viability” value is reported as “Neither 5 wt. % AIBN or 5 wt. % BPO appeared to greatly effect cell viability”. The same measure, in the same setting: the same measure for `O=C(OOC(=O)c1ccccc1)c1ccccc1` [BPO, benzoyl peroxide]: “Neither 5 wt. % AIBN or 5 wt. % BPO appeared to greatly effect cell viability”.

On to “propylene fumarate dimethacrylate [PFDMA]”, for which the viscosity entry in the series “Macromer viscosity” is given as “about 125 cP”.
